From ChEMBL document CHEMBL3045709, “Increasing resistance against Phytophthora citrophthora in tangelo Nova fruits by modulating polymethoxyflavones levels” (J Agric Food Chem, 2002) come the findings set out here.

For assay [1], the system named is Phytophthora citrophthora. Nature of the assay: Antifungal activity against Phytophthora citrophthora after 100 hr. Format: functional, organism-based.
In assay [2] the test system is Citrus. Nature of the assay: Induction of resistance against Phytophthora citrophthora in Citrus (tangelo Nova) fruits assessed as increase of polymethoxyflavones levels at 20 to 250 ppm after 7 days. The assay is classed as functional.
Assay [3] deals with Phytophthora citrophthora. Description: Antifungal activity against Phytophthora citrophthora assessed as inhibition of radical growth at 0.1 to 1 g/L up to 200 hr. The assay is classed as functional, organism-based.
Assay [4] has as its system Citrus. Nature of the assay: Induction of resistance against Phytophthora citrophthora in Citrus (tangelo Nova) fruits assessed as increase of polymethoxyflavones levels at 20 to 250 ppm up to 160 days. The assay is classed as functional.
In assay [5] the test system is Phytophthora citrophthora. Description: Antifungal activity against Phytophthora citrophthora in tangelo Nova fruits assessed as inhibition of fungal growth at 100 ppm after 3 to 5 days. The assay is classed as functional. To be noted: read-out: GI.
In assay [6] the test system is Phytophthora citrophthora. Description: Antifungal activity against Phytophthora citrophthora assessed as inhibition of radical growth at 0.05 to 0.4 g/L up to 200 hr. Format: functional, organism-based.
The test system of assay [7] is Phytophthora citrophthora. Nature of the assay: Antifungal activity against Phytophthora citrophthora assessed as inhibition of radical growth at 0.2 to 0.6 g/L up to 200 hr. Format: functional, organism-based.
For a further assay, the system named is Penicillium digitatum. Description: Antifungal activity against Penicillium digitatum. The assay is classed as functional, organism-based.

For orientation: pIC50 means the negative decadic logarithm of the IC50, by convention in mol/L.

pIC50: −log10 of the molar value. Calls of active or inactive are those of the source. No cut-off for these calls is given here.

`COc1ccc(-c2oc3c(OC)c(OC)c(OC)c(OC)c3c(=O)c2OC)cc1OC` [3,5,6,7,8,3',4'-HEPTAMETHOXYFLAVONE] had a pIC50 in assay [1] of 2.98. In addition, the Activity with Citrus [2] amounted to 29%; in the assay with Citrus [4], 43%. In assay [3], the “growth inhibition (GI)” value was “Active”.

Regarding `c1ccc(CNc2ncnc3[nH]cnc23)cc1` [6-BENZYLAMINOPURINE], the inhibition of growth at 100 ppm in assay [5] turned out to be 60%.

The compound `COc1ccc(-c2cc(=O)c3c(OC)c(OC)c(OC)c(OC)c3o2)cc1OC` [NOBILETIN] had a pIC50 in assay [1] of 3.23. Besides, the “growth inhibition (GI)” value in assay [6] was “Active”. For the same compound, the Activity with Citrus [2] worked out at 20%. For the same compound, in the assay with Citrus [4], the result was Active.

Turning to `COc1ccc(-c2cc(=O)c3c(OC)c(OC)c(OC)cc3o2)cc1OC` [SINENSETIN], in assay [7], the “growth inhibition (GI)” value is “Active”. The compound also had a pIC50 in assay [1] of 3.04. In the assay on Citrus [2], the Activity is given as 20%. The outcome in the assay on Citrus [4] was Active.

On to `COc1ccc(-c2cc(=O)c3c(OC)c(OC)c(OC)c(OC)c3o2)cc1` [TANGERETIN], for which the results for the pIC50 (in assay [1]; with Penicillium digitatum) were 2.76 and 2.19, respectively. Besides, the Activity in the assay on Citrus [2] came out at 12%. Further, the “growth inhibition (GI)” value in assay [3] is “Active”. Also, in the assay on Citrus [4], the outcome was Active.
